Measurements from ChEMBL document CHEMBL1201862, “PubChem BioAssay data set” (2004).
The source made the active and inactive calls.

Columns and labels:
Bcl-2-related protein A1 = target: T1, Bcl-2-related protein A1 (Mus musculus, UniProt Q07440); assay type: functional;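 note: confirmatory dose–response counterscreen on Bfl-1, used to check hits from a UBC13 polyubiquitin inhibitor campaign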
T1 sequence (Q07440 whole entry): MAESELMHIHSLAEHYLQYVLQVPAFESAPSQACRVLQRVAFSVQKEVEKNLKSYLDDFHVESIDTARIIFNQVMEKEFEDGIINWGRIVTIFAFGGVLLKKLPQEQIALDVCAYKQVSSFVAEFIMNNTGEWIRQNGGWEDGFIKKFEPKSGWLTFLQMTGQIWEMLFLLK

[1] = target: T2, Ubiquitin-conjugating enzyme E2 N (Homo sapiens, UniProt P61088); assay type: functional
T2 sequence (P61088 whole entry): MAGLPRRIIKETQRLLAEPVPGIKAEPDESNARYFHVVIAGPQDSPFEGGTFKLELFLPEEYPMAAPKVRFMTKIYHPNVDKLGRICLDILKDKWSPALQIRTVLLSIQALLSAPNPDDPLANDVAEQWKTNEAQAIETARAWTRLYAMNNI

[2] = target: T2, Ubiquitin-conjugating enzyme E2 N; assay type: functional; remark: listed apart in the source
[3] = target: Heat shock protein HSP 90-alpha (Homo sapiens, UniProt P07900); assay type: functional, organism-based
[4] = target: T3, Apoptotic protease-activating factor 1 (Homo sapiens, UniProt O14727); assay type: functional
T3 sequence (O14727 whole entry): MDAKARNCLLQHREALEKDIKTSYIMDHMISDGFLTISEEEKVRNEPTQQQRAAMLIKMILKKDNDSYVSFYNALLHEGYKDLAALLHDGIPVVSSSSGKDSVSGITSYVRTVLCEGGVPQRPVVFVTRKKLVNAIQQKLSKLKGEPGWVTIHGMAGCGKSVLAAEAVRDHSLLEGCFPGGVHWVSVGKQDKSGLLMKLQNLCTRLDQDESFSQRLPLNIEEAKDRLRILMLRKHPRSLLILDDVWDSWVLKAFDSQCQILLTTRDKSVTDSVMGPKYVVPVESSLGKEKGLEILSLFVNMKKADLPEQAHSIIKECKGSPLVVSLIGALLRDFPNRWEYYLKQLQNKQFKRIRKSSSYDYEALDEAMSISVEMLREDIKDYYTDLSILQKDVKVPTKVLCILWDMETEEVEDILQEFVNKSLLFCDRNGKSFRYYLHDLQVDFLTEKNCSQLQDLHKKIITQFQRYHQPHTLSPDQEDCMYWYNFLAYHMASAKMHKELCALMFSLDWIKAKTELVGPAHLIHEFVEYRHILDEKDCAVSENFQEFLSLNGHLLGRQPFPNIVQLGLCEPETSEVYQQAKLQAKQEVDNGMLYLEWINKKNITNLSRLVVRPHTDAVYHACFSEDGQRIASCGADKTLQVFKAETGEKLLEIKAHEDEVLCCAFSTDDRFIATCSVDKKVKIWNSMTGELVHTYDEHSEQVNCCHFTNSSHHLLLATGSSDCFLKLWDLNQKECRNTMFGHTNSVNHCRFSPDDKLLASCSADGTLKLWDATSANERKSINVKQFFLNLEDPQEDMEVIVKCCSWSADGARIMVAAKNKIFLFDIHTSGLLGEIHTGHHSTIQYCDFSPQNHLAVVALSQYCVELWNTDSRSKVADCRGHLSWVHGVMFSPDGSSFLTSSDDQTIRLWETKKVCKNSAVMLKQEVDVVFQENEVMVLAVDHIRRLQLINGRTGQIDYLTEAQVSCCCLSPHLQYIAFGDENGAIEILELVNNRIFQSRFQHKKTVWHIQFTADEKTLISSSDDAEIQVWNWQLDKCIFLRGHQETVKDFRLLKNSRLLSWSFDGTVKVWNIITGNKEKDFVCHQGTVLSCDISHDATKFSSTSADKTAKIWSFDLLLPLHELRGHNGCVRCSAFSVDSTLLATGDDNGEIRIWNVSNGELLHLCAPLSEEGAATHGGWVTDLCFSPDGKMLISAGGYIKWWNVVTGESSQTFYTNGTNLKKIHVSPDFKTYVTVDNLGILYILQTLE

INS1 = assay: INS-1E survival protection against cytokine death – cell-based, luminescence, retest, dose response (AID 449756); assay type: functional; settings: Rattus norvegicus;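 note: cell death triggered by IL-1 beta plus TNF-alpha plus IFN-gamma mixture; protective hits raise ATP signal compared with cytokine alone wells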
[5] = target: T4, DNA repair protein RAD52 homolog (Homo sapiens, UniProt P43351); assay type: functional, biochemical
T4 sequence (P43351 whole entry): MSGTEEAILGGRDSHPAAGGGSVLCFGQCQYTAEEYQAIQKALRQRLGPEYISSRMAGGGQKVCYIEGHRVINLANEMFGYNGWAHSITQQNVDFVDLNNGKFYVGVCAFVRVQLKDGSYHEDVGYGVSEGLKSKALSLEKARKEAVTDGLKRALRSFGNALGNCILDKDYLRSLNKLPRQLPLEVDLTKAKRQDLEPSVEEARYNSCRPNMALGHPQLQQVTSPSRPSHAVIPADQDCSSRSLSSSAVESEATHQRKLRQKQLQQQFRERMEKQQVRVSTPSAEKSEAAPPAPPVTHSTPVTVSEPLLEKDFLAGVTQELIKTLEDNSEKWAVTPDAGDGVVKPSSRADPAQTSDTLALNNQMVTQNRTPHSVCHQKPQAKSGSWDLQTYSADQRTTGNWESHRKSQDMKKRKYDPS

[6] = target: T5, Endoribonuclease toxin MazF (Escherichia coli K-12, UniProt P0AE70); assay: activation of MazEF endoribonuclease cleavage – biochemical, fluorescence, single-stranded RNA substrate, uHTS hits, dose response (AID 588481); assay type: functional
T5 sequence (P0AE70 whole entry): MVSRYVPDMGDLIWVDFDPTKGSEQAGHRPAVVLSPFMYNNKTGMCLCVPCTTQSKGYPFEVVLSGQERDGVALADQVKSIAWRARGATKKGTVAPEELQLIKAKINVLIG

[7] = target: T5, Endoribonuclease toxin MazF; assay: substrate-only fluorescence increase artefacts – biochemical, single-stranded RNase substrate, counter-screen for MazEF activator project, dose response (AID 588502); assay type: functional
[8] = target: 26S proteasome non-ATPase regulatory subunit 14 (Homo sapiens, UniProt O00487); assay: inhibition of proteasome subunit RPN11 – biochemical, fluorescence polarization, uHTS hits, confirmation (AID 602368); assay type: functional
Chain of 26S proteasome non-ATPase regulatory subunit 14 (O00487 whole entry): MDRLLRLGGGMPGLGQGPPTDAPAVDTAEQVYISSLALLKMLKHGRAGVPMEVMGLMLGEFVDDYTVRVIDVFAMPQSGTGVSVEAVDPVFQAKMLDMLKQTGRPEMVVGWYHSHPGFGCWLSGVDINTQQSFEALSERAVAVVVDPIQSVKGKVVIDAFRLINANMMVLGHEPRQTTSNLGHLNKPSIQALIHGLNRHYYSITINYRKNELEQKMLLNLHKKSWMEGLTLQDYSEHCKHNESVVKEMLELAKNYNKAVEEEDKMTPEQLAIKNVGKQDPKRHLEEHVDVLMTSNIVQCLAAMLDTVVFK

[9] = target: 72 kDa type IV collagenase (Homo sapiens, UniProt P08253); assay: Dose Response validation of uHTS RPN11 inhibitor hits using a MMP-2 Fluorescence assay.; assay type: functional
Chain of 72 kDa type IV collagenase (P08253 whole entry): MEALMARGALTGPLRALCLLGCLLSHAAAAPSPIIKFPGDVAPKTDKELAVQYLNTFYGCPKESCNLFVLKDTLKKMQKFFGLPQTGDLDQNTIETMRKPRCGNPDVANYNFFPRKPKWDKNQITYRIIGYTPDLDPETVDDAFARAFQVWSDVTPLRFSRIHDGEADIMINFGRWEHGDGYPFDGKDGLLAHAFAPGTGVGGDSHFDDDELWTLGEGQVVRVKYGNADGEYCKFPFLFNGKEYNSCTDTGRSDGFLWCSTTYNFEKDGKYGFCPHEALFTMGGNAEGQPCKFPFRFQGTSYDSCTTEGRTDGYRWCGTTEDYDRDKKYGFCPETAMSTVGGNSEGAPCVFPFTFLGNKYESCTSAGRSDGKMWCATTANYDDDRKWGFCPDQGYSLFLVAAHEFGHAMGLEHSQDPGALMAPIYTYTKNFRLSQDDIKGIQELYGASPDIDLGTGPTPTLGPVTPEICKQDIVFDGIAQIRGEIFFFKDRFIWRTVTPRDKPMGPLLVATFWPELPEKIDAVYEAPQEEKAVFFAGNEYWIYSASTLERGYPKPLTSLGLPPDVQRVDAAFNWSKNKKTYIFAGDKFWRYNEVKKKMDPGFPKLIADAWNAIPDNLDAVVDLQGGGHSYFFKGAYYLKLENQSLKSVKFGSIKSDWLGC

Prothrombin = Prothrombin (Bos taurus, UniProt P00735); assay: thrombin protease inhibitors – biochemical, fluorescence polarization, uHTS hits, dose response (AID 602369); assay type: functional
Cytochrome P450 1A2 = target: T6, Cytochrome P450 1A2 (Homo sapiens, UniProt P05177);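 note: PubChem cytochrome P450 panel assay, CYP1A2 panel member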
T6 sequence (P05177 whole entry): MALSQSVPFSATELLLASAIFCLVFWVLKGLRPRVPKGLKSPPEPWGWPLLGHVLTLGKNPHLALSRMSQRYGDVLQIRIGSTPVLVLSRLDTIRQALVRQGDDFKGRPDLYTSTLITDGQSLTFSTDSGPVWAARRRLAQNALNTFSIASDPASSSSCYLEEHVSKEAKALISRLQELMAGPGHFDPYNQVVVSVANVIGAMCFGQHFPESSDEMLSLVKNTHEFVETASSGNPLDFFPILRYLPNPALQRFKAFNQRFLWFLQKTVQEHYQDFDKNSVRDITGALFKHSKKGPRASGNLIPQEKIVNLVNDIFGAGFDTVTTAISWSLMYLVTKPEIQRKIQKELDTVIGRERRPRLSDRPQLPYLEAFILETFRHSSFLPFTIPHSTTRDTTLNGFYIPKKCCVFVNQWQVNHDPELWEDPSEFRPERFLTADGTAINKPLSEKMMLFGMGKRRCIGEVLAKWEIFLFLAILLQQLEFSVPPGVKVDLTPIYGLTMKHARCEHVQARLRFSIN

Cytochrome P450 2C9 = Cytochrome P450 2C9 (Homo sapiens, UniProt P11712)
Chain of Cytochrome P450 2C9 (P11712 whole entry): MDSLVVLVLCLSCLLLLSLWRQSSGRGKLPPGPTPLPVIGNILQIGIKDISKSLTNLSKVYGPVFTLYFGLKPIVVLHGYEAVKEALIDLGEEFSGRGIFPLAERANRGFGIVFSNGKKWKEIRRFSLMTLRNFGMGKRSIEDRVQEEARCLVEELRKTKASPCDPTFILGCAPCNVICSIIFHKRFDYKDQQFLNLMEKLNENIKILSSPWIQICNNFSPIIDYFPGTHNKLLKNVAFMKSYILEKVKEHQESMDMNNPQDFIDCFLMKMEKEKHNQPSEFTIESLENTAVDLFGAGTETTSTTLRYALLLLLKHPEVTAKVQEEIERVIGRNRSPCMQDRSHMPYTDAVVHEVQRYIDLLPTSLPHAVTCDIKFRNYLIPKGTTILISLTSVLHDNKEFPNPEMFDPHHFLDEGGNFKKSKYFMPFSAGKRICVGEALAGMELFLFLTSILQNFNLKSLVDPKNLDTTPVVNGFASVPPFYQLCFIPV

Cytochrome P450 3A4 = Cytochrome P450 3A4 (Homo sapiens, UniProt P08684);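 note: CYP3A4 tested as one member of a cytochrome P450 panel screen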
Chain of Cytochrome P450 3A4 (P08684 whole entry): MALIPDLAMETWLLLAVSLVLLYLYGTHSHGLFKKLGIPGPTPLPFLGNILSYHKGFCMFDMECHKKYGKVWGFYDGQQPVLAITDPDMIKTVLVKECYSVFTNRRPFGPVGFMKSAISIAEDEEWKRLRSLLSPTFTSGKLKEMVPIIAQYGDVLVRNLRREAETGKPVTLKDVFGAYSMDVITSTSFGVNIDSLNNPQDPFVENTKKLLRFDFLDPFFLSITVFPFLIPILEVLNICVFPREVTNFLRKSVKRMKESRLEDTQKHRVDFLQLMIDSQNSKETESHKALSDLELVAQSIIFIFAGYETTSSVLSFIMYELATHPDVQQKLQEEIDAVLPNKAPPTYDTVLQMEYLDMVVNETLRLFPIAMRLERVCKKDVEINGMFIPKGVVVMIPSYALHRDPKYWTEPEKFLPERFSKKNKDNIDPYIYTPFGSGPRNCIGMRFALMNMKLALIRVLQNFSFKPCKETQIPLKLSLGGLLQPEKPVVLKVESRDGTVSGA

[10] = target: T7, High affinity choline transporter 1 (Homo sapiens, UniProt Q9GZV3); assay: human choline transporter blockers, potency – cell-based, 5-point CRC, membrane potential dye, dose response (AID 504840); assay type: functional
T7 sequence (Q9GZV3 whole entry): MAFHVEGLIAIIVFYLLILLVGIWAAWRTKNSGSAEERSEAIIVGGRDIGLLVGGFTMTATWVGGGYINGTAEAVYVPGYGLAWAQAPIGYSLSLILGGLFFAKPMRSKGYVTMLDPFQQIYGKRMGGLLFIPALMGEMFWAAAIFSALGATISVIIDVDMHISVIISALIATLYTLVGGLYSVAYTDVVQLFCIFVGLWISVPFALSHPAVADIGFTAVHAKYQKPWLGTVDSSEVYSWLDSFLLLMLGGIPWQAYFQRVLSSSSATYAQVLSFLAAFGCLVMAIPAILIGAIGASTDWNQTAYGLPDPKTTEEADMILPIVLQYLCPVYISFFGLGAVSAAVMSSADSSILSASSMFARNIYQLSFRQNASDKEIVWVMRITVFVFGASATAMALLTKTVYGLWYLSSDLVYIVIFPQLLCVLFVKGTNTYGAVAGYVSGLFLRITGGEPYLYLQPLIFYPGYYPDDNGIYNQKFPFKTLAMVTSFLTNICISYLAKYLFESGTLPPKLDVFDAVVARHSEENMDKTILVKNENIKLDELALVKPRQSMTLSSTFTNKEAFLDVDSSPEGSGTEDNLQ

For `Cc1cc(C(C)(C)CC(C)(C)C)ccc1OCCOCC[N+](C)(C)Cc1ccccc1`, the IC50 (Bcl-2-related protein A1) was 14.9 µM (active), the IC50 [1] was 8.92 µM (active) and the IC50 [2] was 9.49 µM (active). The AC50 [3] was 7.56 µM (active), the IC50 [4] was 21.3 µM (active) and the AC50 (INS1) was 2.41 µM (active). For the same molecule, the AC50 [5] was 20.4 µM (active).
In the case of `O=C(C1=NN[C@@H]2C(=O)N(c3cccc(C(F)(F)F)c3)C(=O)[C@H]12)c1ccc2ccccc2n1`, the EC50 [6] is reported as 47.9 µM (inactive) and the EC50 [7] is reported as > 99 µM (inactive).
`CN(C(=O)COC(=O)c1ccc([N+](=O)[O-])cc1N)c1ccccc1` was tested, and the EC50 [6] was > 99 µM (inactive) and the EC50 [7] was > 99 µM (inactive).
In the case of `Cn1cncc1C#Cc1ccc2cc(C3(O)CCCCC3)oc(=O)c2c1`, the IC50 [8] is reported as 32.5 µM (active), the IC50 [9] is reported as > 100 µM (inactive) and the IC50 (Prothrombin) is reported as 53.3 µM (active).
In the case of `CCCCOC(=O)c1ccc(NC(=S)NC(=O)c2c(Cl)cnn2C)cc1`, the AC50 (Cytochrome P450 1A2) is reported as 39.8 µM (inconclusive), the AC50 (Cytochrome P450 2C9) is reported as 39.8 µM (inconclusive) and the AC50 (Cytochrome P450 3A4) is reported as “inconclusive”.
With `CCOc1ccccc1C(=O)NC(C)c1ccc2c(c1)OCO2` (stereo unspecified) the IC50 [10] was 19.1 µM (active).
`CC(=O)Nc1ccc(C(=O)CSc2cc(C)c3cccc(C)c3n2)cc1` was tested, and the EC50 [6] was > 99 µM (inactive) and the EC50 [7] was > 99 µM (inactive).
For `CCc1nnc(NS(=O)(=O)c2ccc(NC(=O)c3cc(Cl)ccc3Cl)cc2)s1`, the IC50 [10] was 12.3 µM (active).
In the case of `Cc1noc(NS(=O)(=O)c2ccc(NC(=O)COc3ccc(Cl)cc3Cl)cc2)c1C`, the IC50 [10] is reported as 1.08 µM (active).
In the case of `C=CCn1c(COc2cccc(C)c2)nnc1SC(C)C(=O)NC1CC1` (stereo unspecified), the IC50 [4] is reported as > 100 µM (inactive).
For `Cc1cc(C(=O)N/N=C/c2ccc(-c3ccc([N+](=O)[O-])cc3C)o2)[nH]n1`, the EC50 [6] was > 99 µM (inactive) and the EC50 [7] was > 99 µM (inactive).
For `C/C(=N\OCC(=O)Nc1ccccc1C(=O)O)c1cccs1`, the IC50 [10] was 11 µM (active).
